“And” between values parts separate entries of the source, which are not always exact repeats. Identical values can stand only once. Like-named read-outs stand apart in the source and are kept apart here.
Legend:
Assay type in all cases: biochemical
Aurora-2 (Aurora A) = target: T1, Aurora-2 (Aurora A) (Homo sapiens, UniProt O14965); assay: Aurora-2 (Aurora A) inhibition assay, coupled enzyme
T1 sequence (O14965 1-403): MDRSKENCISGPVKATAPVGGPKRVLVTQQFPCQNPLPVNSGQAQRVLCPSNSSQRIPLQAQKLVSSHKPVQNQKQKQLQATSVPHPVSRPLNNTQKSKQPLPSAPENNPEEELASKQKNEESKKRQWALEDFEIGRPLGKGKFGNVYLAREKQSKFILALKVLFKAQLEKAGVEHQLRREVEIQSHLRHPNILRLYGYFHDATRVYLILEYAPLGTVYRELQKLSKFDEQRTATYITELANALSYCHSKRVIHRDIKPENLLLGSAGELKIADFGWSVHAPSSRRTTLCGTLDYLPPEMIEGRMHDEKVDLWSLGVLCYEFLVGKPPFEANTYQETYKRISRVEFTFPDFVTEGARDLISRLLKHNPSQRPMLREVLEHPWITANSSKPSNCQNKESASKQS
Procedure, shortened: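 Coupled pyruvate kinase/lactate dehydrogenase assay with NADH in pH 7.5 Hepes containing MgCl2, DTT and NaCl, using 40 nM Aurora-2 at 30 °C. After a 10 min preincubation, enzyme addition started the reaction, and initial rates were taken over 10 min. IC50 and Ki came from non-linear regression.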

Aurora-1 (Aurora B) = Aurora-1 (Aurora B) (Homo sapiens, UniProt Q96GD4); assay: Aurora-1 (Aurora B) inhibition assay (radiometric)
Procedure, shortened: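 Radiometric ^33P incorporation into peptide substrate, with [γ-^33P]-ATP at 800 μM final, in 25 mM HEPES pH 7.5, 10 mM MgCl2, 0.1% BSA, 10% glycerol. Compound preincubated with enzyme for 10 min at 25° C, reaction run 3 h, then captured on phosphocellulose. Ki from initial rates by non-linear regression after background subtraction.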

human Itk kinase = target: T2, human Itk kinase (Homo sapiens, UniProt Q08881); assay: Itk inhibition assay: radioactivity-based assay; conditions: Ki(app)
T2 sequence (Q08881 1-620): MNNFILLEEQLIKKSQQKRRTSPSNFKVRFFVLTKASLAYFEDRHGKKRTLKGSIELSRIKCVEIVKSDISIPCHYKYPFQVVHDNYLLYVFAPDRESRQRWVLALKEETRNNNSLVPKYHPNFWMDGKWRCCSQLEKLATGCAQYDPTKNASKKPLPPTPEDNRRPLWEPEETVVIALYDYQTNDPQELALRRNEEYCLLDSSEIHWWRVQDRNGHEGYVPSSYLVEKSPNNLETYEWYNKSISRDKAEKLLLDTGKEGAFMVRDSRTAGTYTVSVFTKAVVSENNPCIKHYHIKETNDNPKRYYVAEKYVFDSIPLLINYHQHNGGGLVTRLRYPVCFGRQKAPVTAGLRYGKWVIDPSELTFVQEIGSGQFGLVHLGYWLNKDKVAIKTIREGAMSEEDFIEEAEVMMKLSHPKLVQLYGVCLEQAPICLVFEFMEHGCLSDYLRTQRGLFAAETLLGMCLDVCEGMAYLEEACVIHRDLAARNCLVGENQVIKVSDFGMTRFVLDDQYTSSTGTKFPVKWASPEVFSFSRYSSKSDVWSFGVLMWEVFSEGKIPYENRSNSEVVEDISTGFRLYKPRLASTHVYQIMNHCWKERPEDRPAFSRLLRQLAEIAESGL
Procedure, shortened: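 50 nM Itk with 3 μM SAM68 Δ332-443 peptide and 7.5 μM [γ-33P]ATP in MOPS pH 7.0, MgCl2, 25° C; compound (top 50 μM final, 2-fold dilutions, 2% DMSO) preincubated 10 min, reaction 10 min. Phosphocellulose filter capture and scintillation counting; Ki(app) by non-linear regression of initial rates.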

[1] = read-out: Aurora A kinase Ki value
[2] = read-out: Aurora B kinase Ki value

Sequence of Aurora-1 (Aurora B) (Q96GD4 whole entry): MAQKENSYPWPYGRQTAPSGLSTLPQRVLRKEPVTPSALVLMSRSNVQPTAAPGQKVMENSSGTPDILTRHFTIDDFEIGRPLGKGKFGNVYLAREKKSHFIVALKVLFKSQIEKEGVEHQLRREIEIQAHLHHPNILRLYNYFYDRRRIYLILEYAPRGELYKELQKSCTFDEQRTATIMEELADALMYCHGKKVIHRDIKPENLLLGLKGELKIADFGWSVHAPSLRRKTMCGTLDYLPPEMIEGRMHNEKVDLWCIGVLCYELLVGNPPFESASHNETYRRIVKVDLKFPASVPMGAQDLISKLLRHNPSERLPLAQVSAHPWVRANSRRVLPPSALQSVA

Ki (Aurora-1 (Aurora B); Aurora B kinase Ki value) | SMILES | Ki (Aurora-2 (Aurora A); [1]) | Ki (Aurora-1 (Aurora B); [2]) | Ki (human Itk kinase) | Ki (Aurora-2 (Aurora A))
 | Cc1cnc(Nc2cc(N3CC(N)C3)nc(Sc3ccc(NC(=O)C4CC4)cc3)n2)s1 [Compound 2] | 0.005 to 0.2 µM | 0.05 to 2 µM | 0.1 to 1 µM | 
 | Cc1cnc(Nc2cc(N3CC(O)C3)nc(Sc3ccc(NC(=O)C4CC4)cc3)n2)s1 [Compound 3] | 0.001 to 0.005 µM | ≤ 0.01 µM | 0.1 to 1 µM | 
 | Cc1cnc(Nc2cc(N3CCC3)nc(Sc3ccc(NC(=O)C4CC4)cc3)n2)s1 [Compound 4] | 0.001 to 0.005 µM | 0.05 to 2 µM | 0.1 to 1 µM | 
 | CC1=NN=C(Nc2cc(N3CCC3)nc(Sc3ccc(NC(=O)c4ccccc4Cl)cc3)n2)C1 [Compound 5] | ≤ 0.001 µM | ≤ 0.01 µM | 0.1 to 1 µM | 
0.01 to 0.05 µM and < 0.025 µM | CC1=NN=C(Nc2cc(N3CCC3)nc(Sc3ccc(NC(=O)C4CCCN4C)cc3)n2)C1 (stereo not drawn) [Compound 6] | 0.005 to 0.2 µM |  | 0.1 to 1 µM | 
 | Cc1cc(Nc2cc(N3CCC3)nc(Sc3ccc(NC(=O)c4c(F)cccc4N4CCC4)cc3)n2)n[nH]1 [Compound 8] | 0.001 to 0.005 µM | ≤ 0.01 µM | 0.1 to 1 µM | 
 | Cc1cc(Nc2cc(N3CCC3)nc(Sc3ccc(N(C)C(=O)c4ccccc4F)cc3)n2)n[nH]1 [Compound 10] | 0.005 to 0.2 µM | 0.05 to 2 µM | 1 to 2 µM | 
 | COC1CN(c2cc(Nc3cc(C)[nH]n3)nc(Sc3ccc(NC(=O)c4ccccc4Cl)cc3)n2)C1 [Compound 12] |  | ≤ 0.01 µM | ≤ 0.1 µM | ≤ 0.001 µM
 | CCC(=O)Nc1ccc(Sc2nc(Nc3cc(C)[nH]n3)cc(N3CCC3)n2)cc1 [Compound 14] | 0.001 to 0.005 µM | 0.01 to 0.05 µM and < 0.025 µM | 0.1 to 1 µM | 
 | CCC(=O)Nc1ccc(Sc2nc(Nc3cc(C)[nH]n3)cc(N3CC(O)C3)n2)cc1 [Compound 15] |  | 0.01 to 0.05 µM and < 0.025 µM | 0.1 to 1 µM | 0.001 to 0.005 µM
 | Cc1cc(Nc2cc(N3CC(C#N)C3)nc(Sc3ccc(NC(=O)c4ccccc4Cl)cc3)n2)n[nH]1 [Compound 16] | ≤ 0.001 µM | ≤ 0.01 µM | ≤ 0.1 µM | 
 | Cc1cc(Nc2cc(N3CCC3)nc(Sc3ccc(NC(=O)C4CC4)cc3)n2)n[nH]1 [Compound 17] | 0.001 to 0.005 µM | 0.01 to 0.05 µM | 0.1 to 1 µM | 
 | CCNC(=O)c1ccc(Sc2nc(Nc3cc(C)[nH]n3)cc(N3CCC3)n2)cc1 [Compound 20] |  | 0.01 to 0.05 µM | 0.1 to 1 µM | 0.005 to 0.2 µM
 | Cc1cc(Nc2cc(N3CCC3)nc(Sc3ccc4ccccc4c3)n2)n[nH]1 [Compound 25] | 0.001 to 0.005 µM | 0.05 to 2 µM | 1 to 2 µM | 
 | Cc1cc(Nc2cc(N3CCC3)nc(Sc3ccc(NC(=O)OC(C)(C)C)cc3)n2)n[nH]1 [Compound 26] | 0.005 to 0.2 µM | 0.05 to 2 µM | 1 to 2 µM | 
 | Cc1ccc(S(=O)(=O)Nc2ccc(Sc3nc(Nc4cc(C)[nH]n4)cc(N4CCC4)n3)cc2)cc1 [Compound 27] |  | 0.05 to 2 µM | 1 to 2 µM | 0.001 to 0.005 µM
 | Cc1ccc(C(=O)Nc2ccc(Sc3nc(Nc4cc(C)[nH]n4)cc(N4CCC4)n3)cc2)cc1 [Compound 28] |  | 0.01 to 0.05 µM | 0.1 to 1 µM | 0.001 to 0.005 µM
 | Cc1cc(Nc2cc(N3CCC3)nc(Sc3ccc(NC(=O)C4CCCCC4)cc3)n2)n[nH]1 [Compound 30] | 0.001 to 0.005 µM | 0.01 to 0.05 µM | 0.1 to 1 µM | 
 | Cc1cc(Nc2cc(N3CCC3)nc(Sc3ccc(NC(=O)Cc4ccccc4)cc3)n2)n[nH]1 [Compound 35] | 0.001 to 0.005 µM | 0.01 to 0.05 µM | 0.1 to 1 µM | 
 | Cc1cc(Nc2cc(N3CC(C)C3)nc(Sc3ccc(NC(=O)c4ccccc4Cl)cc3)n2)n[nH]1 [Compound 39] | 0.001 to 0.005 µM | 0.01 to 0.05 µM and < 0.025 µM | ≤ 0.1 µM | 

Ki (Aurora-1 (Aurora B); Aurora B kinase Ki value) | SMILES | Ki (Aurora-2 (Aurora A); [1]) | Ki (Aurora-1 (Aurora B); [2]) | Ki (human Itk kinase) | Ki (Aurora-2 (Aurora A))
 | Cc1cc(Nc2cc(N3CCC3)nc(Sc3ccc(NC(=O)CC(F)(F)F)cc3)n2)n[nH]1 [Compound 40] | ≤ 0.001 µM | ≤ 0.01 µM | 0.1 to 1 µM | 
 | Cc1cc(Nc2cc(N3CCC3)nc(Sc3ccc(NC(=O)c4ccc(F)cc4F)cc3)n2)n[nH]1 [Compound 44] | 0.001 to 0.005 µM | 0.01 to 0.05 µM | 0.1 to 1 µM | 
 | Cc1cc(Nc2cc(N3CCC3)nc(Sc3cccc(NC(=O)c4ccccc4Cl)c3)n2)[nH]n1 [Compound 49] | 0.005 to 0.2 µM | 0.05 to 2 µM | 1 to 2 µM | 
 | CC1=NN=C(Nc2cc(N3CCC3)nc(Sc3ccc(NC(=O)c4ccccc4)cc3)n2)C1 [Compound 52] | 0.005 to 0.2 µM | 0.05 to 2 µM | 0.1 to 1 µM | 
 | Cc1cc(Nc2cc(N3CCC3)nc(Sc3ccc(NC(=O)c4ccc(Cl)cc4)cc3)n2)n[nH]1 [Compound 54] |  | 0.05 to 2 µM | 0.1 to 1 µM | 0.001 to 0.005 µM
 | CC1=NN=C(Nc2cc(N3CCC3)nc(Sc3ccc(NC(=O)c4cccc(C(F)(F)F)c4F)cc3)n2)C1 [Compound 55] |  | ≤ 0.01 µM | 0.1 to 1 µM | ≤ 0.001 µM
 | Cc1cc(Nc2cc(N3CCC3)nc(Sc3ccc(NC(=O)Cc4cccc(Cl)c4)cc3)n2)[nH]n1 [Compound 58] | 0.001 to 0.005 µM | 0.01 to 0.05 µM and < 0.025 µM | 0.1 to 1 µM | 
 | Cc1cc(Nc2cc(N3CC(F)C3)nc(Sc3ccc(NC(=O)c4ccccc4Cl)cc3)n2)[nH]n1 [Compound 60] | 0.001 to 0.005 µM | 0.01 to 0.05 µM | ≤ 0.1 µM | 
 | CC1=NN=C(Nc2cc(N3CCC3)nc(Sc3ccc(NC(=O)c4cccc(Cl)c4F)cc3)n2)C1 [Compound 61] | ≤ 0.001 µM | ≤ 0.01 µM | ≤ 0.1 µM | 
 | Cc1cc(Nc2cc(N3CC(OC(C)(C)C)C3)nc(Sc3ccc(NC(=O)c4ccccc4Cl)cc3)n2)[nH]n1 [Compound 66] |  | ≤ 0.01 µM | 0.1 to 1 µM | ≤ 0.001 µM
 | CCC(=O)Nc1ccc(Sc2nc(Nc3cc(C)n[nH]3)cc(N3CC(C)(O)C3)n2)cc1 [Compound 71] | 0.001 to 0.005 µM | 0.01 to 0.05 µM | 0.1 to 1 µM | 
 | CCC(=O)Nc1ccc(Sc2nc(Nc3cc(C4CC4)n[nH]3)cc(N3CC(C)(O)C3)n2)cc1 [Compound 76] | 0.001 to 0.005 µM | ≤ 0.01 µM | ≤ 0.1 µM | 
 | CCC(=O)Nc1ccc(Sc2nc(C#CC(C)(C)N3CCC3)cc(Nc3cc(C)n[nH]3)n2)cc1 [Compound 77] | 0.001 to 0.005 µM | 0.05 to 2 µM | 0.1 to 1 µM | 
 | CCC(=O)Nc1ccc(Sc2nc(Nc3cc(C)n[nH]3)cc(N3CC(C)(C#N)C3)n2)cc1 [Compound 79] | 0.001 to 0.005 µM | 0.01 to 0.05 µM and < 0.025 µM | 0.1 to 1 µM | 
 | CCC(=O)Nc1ccc(Sc2nc(Nc3cc(C)n[nH]3)cc(N3CC(C)(NC(C)(C)C)C3)n2)cc1 [Compound 80] | 0.001 to 0.005 µM | 0.01 to 0.05 µM | 0.1 to 1 µM | 
 | CCC(=O)Nc1ccc(Sc2nc(Nc3cc(C)n[nH]3)cc(N3CC(O)(C(C)(C)C)C3)n2)cc1 [Compound 81] | ≤ 0.001 µM | ≤ 0.01 µM | ≤ 0.1 µM | 
 | Cc1cc(Nc2cc(N3CCC3)nc(Sc3ccc(NC(=O)c4ccc(Cl)cc4Cl)cc3)n2)n[nH]1 [Compound 162] |  | 0.01 to 0.05 µM and < 0.025 µM | 0.1 to 1 µM | ≤ 0.001 µM
 | Cc1cc(Nc2cc(N3CCC3)nc(Sc3ccc(NC(=O)c4nccn4C)cc3)n2)n[nH]1 [Compound 166] | 0.005 to 0.2 µM | 0.05 to 2 µM | 1 to 2 µM | 
 | Cc1cc(Nc2cc(N3CCC3)nc(Sc3ccc(NC(=O)c4ocnc4C)cc3)n2)n[nH]1 [Compound 167] | 0.005 to 0.2 µM | 0.05 to 2 µM | 1 to 2 µM | 

— patent US8637511B2, “Aminopyrimidines useful as kinase inhibitors” (Vertex Pharmaceuticals Incorporated, priority 2005, dated 2014)
